Data published in patent US8697747B2, “Enhancing coagulation or reducing fibrinolysis” (THe UAB Research Foundation, priority 2009, dated 2014).

Key:
pooled normal plasma [1] = assay: Thrombelastographic coagulation kinetics, tissue factor-activated normal plasma; type: biochemical, human; conditions: 100 μM
Procedure: Pooled normal plasma (George King Bio-Medical, Overland Park, Kans.) anticoagulated with sodium citrate was utilized for experimentation. […] Factor XIII (FXIII) deficient plasma anticoagulated with sodium citrate was also obtained from George King Bio-Medical (Overland Park, Kans.).
Plasma Sample Composition. The final volume for all subsequently described plasma sample mixtures was 359.4 μL. […] (Motterlini et al., Expert Opin Investig Drugs, 14:1305-1318 (2005), which is incorporated by reference herein in its entirety).
Clot Lifespan Model Analyses. Plasma sample mixtures were placed in a disposable cup in a computer-controlled THROMBELASTOGRAPH® hemostasis system (Model 5000, Haemoscope Corp., Niles, Ill.), with addition of CaCl2 as the last step to initiate clotting. Data were collected for 15 minutes, as normal plasma completes thrombus formation within this interval in this system (Dong et al., Eur J Pharmacol 590:99-104 (2008)).
Statistical Analyses. Data are presented as mean±SD. All conditions described were represented with n=8 experiments, as n=6-8 typically provides statistical power>0.8 in similar analyses (Nielsen et al., Acta Anaesthesiol Scand 49:222-231 (2005) and Nielsen et al., Blood Coagul Fibrinolysis 17:75-81 (2006)). Analyses of the effects of CORM-2 and iCORM-2 on thrombelastographic variables were conducted using one way analysis of variance with the Holm-Sidak test used for post hoc comparisons. Graphical representation of the data was generated with commercially available software (Origin 7.5, OriginLab Corp., Northampton, Mass.). A P value of ≦0.05 was considered significant.

pooled normal plasma [2] = assay: CLSM thrombelastography with tPA in undiluted and 30% diluted plasma; type: biochemical, human; conditions: tPA 100 IU/mL, 100 μM CORM-2, median, n=8
Text: Plasma and volume expanders. Pooled normal plasma (George King Bio-Medical, Overland Park, Kans.) anticoagulated with sodium citrate was utilized for experimentation. […] The volume expanders tested were 0.9% NaCl (Abbott Laboratories, North Chicago, Ill.; also designated as NS) and 6% hydroxylethyl starch (HES) in 0.9% NaCl (VOLUVEN®, average molecular weight 130 kDa, 0.4 degree of substitution, C2:C6 ratio of substitution 11.2; Fresenius Kabi, Bad Homburg, Germany; also referred to as VOL).
Plasma sample composition of experiments with tissue-type plasminogen activator addition. As in the first series of experiments, the final volume of plasma sample mixtures was 359.6 μL. Sample composition consisted of 316 μL of plasma/volume expander, 10 μL of tissue factor reagent (0.1% final concentration), 3.6 μL of DMSO without or with CORM-2 (100 μM final concentration), 10 μL of tissue-type plasminogen activator (tPA, 580 U/μg, Genentech, Inc., San Francisco, Calif.) diluted with 10 mM potassium phosphate buffer (pH 7.4) for a final activity of 100 IU/mL, and 20 μL of 200 mM CaCl2. As with tissue factor reagent, tPA stock was kept on ice prior to use and was remade every two hours. Plasma was diluted 0% or 30% with NS or VOL (n=8 per condition).
Clot Lifespan Model (CLSM) Analyses. Plasma sample mixtures were placed in a disposable cup in a computer-controlled THROMBELASTOGRAPH® hemostasis system (Model 5000, Haemoscope Corp., Niles, Ill.), with addition of CaCl2 as the last step to initiate clotting. In the first series of experiments, no tPA was added, so data were collected until clot strength (maximum amplitude) was stable. In the second series of experiments which in tPA was added, data were collected until clot lysis time occurred. […] Additional elastic modulus-based parameters were determined and the nomenclature used to describe these phenomena is as follows: Time to maximum rate of thrombus generation (TMRTG): This is the time interval (sec) observed prior to maximum speed of clot growth. Maximum rate of thrombus generation (MRTG): This is the maximum velocity of clot growth observed (dynes/cm^2/sec). Total Thrombus Generation (TTG): This is the total area under the velocity curve during clot growth (dynes/cm^2), representing the amount of clot strength generated during clot growth. Time to maximum rate of lysis (TMRL): This is the time interval (sec) measured from the time of maximum strength to the time when the velocity of clot disintegration is maximal. Maximum Rate of Lysis (MRL): This is the maximum velocity of clot disintegration observed (−dynes/cm^2/sec). Area of Clot Lysis (ACL): This is the total area under the velocity curve during clot disintegration (−dynes/cm^2), representing the amount of clot strength lost during clot disintegration. As this model involves complete fibrinolysis, TTG is equivalent to ACL, so ACL was not presented as it provides no additional information.
Statistical Analyses. Data obtained from pooled normal plasma not exposed to tPA were graphically represented with commercially available software (SigmaPlot 11.0, Systat Software, Inc., San Jose, Calif.), and kinetic modeling of thrombelastographic data performed with the same software. Analyses of the effects of hemodilution and CORM-2 on CLSM variables obtained from pooled normal plasma were conducted using Kruskal-Wallis one way analysis of variance with Student-Newman-Keuls post-hoc test. […] These analyses were conducted with the same commercially available software (SigmaPlot 11.0). A P value of <0.05 was considered significant.

[3] = TF-activated normal plasma, mean ± SD, n=8

Structure (SMILES): [C-]#[O+].[C-]#[O+].[C-]#[O+].[C-]#[O+].[C-]#[O+].[C-]#[O+].[Cl][Ru][Cl].[Cl][Ru][Cl] [CORM-2, tricarbonyldichlororuthenium (II) dimer]
- MRTG (maximum rate of thrombus generation) (pooled normal plasma [1]; [3]): 9.1 ± 0.9 dynes/cm^2/sec
- TMRTG (time to maximum rate of thrombus generation) (pooled normal plasma [1]; [3]): 156 ± 13 s
- TTG (total thrombus generation) (pooled normal plasma [1]; [3]): 273 ± 21 dynes/cm^2
- velocity of clot growth relative to unexposed samples (pooled normal plasma [1]; tissue factor activation): more than double
- CGT (clot growth time) (pooled normal plasma [2]; plasma diluted 30% with NS): 8.0 min
- CLS (clot lifespan) (pooled normal plasma [2]; plasma diluted 30% with NS): 38.7 min
- CLT (clot lysis time) (pooled normal plasma [2]; plasma diluted 30% with NS): 31.5 min
- MRL (maximum rate of lysis) (pooled normal plasma [2]; plasma diluted 30% with NS): −1.9 −dynes/cm^2/sec
- MRTG (maximum rate of thrombus generation) (pooled normal plasma [2]; plasma diluted 30% with NS): 11.2 dynes/cm^2/sec
- TMRL (time to maximum rate of lysis) (pooled normal plasma [2]; plasma diluted 30% with NS): 23.4 min
- TMRTG (time to maximum rate of thrombus generation) (pooled normal plasma [2]; plasma diluted 30% with NS): 2.00 min
- TTG (total thrombus generation) (pooled normal plasma [2]; plasma diluted 30% with NS): 206 dynes/cm^2
- CGT (clot growth time) (pooled normal plasma [2]; plasma diluted 30% with VOL): 2.2 min
- CLS (clot lifespan) (pooled normal plasma [2]; plasma diluted 30% with VOL): 10.0 min
- CLT (clot lysis time) (pooled normal plasma [2]; plasma diluted 30% with VOL): 8.0 min
- MRL (maximum rate of lysis) (pooled normal plasma [2]; plasma diluted 30% with VOL): −0.9 −dynes/cm^2/sec
- MRTG (maximum rate of thrombus generation) (pooled normal plasma [2]; plasma diluted 30% with VOL): 3.8 dynes/cm^2/sec
- TMRL (time to maximum rate of lysis) (pooled normal plasma [2]; plasma diluted 30% with VOL): 5.2 min
- TMRTG (time to maximum rate of thrombus generation) (pooled normal plasma [2]; plasma diluted 30% with VOL): 2.0 min
- TTG (total thrombus generation) (pooled normal plasma [2]; plasma diluted 30% with VOL): 62 dynes/cm^2
- CGT (clot growth time) (pooled normal plasma [2]; undiluted plasma): 8.1 min
- CLS (clot lifespan) (pooled normal plasma [2]; undiluted plasma): 31.6 min
- CLT (clot lysis time) (pooled normal plasma [2]; undiluted plasma): 24.3 min
- MRL (maximum rate of lysis) (pooled normal plasma [2]; undiluted plasma): −3.0 −dynes/cm^2/sec
- MRTG (maximum rate of thrombus generation) (pooled normal plasma [2]; undiluted plasma): 13.9 dynes/cm^2/sec
- TMRL (time to maximum rate of lysis) (pooled normal plasma [2]; undiluted plasma): 17.7 min
- TMRTG (time to maximum rate of thrombus generation) (pooled normal plasma [2]; undiluted plasma): 2.1 min
- TTG (total thrombus generation) (pooled normal plasma [2]; undiluted plasma): 285 dynes/cm^2
